Drawing on PubChem BioAssay AID1259407 (Chemical Carcinogenesis Research Information System (CCRIS), 2018), this text covers mutagenic call for ten compounds.

Structures are written as SMILES. Activity calls are given as the source filed them. No rule for the calls is given here.

The subject of this series is CCRIS mutagenicity, Ames/micronucleus/aberration tests. The experiment in a line: CCRIS mutagenicity studies.
Setting [1] is: Test System: AMES SALMONELLA TYPHIMURIUM, Strain/Indicator: TA98, Metabolic Activation: NONE, Method: PREINCUBATION
[2] abbreviates: Test System: AMES SALMONELLA TYPHIMURIUM, Strain/Indicator: TA98, Metabolic Activation: NONE, Method: STANDARD PLATE.
[3] abbreviates: Test System: AMES SALMONELLA TYPHIMURIUM, Strain/Indicator: TA98, Metabolic Activation: RAT, LIVER, S-9, AROCLOR 1254, Method: STANDARD PLATE.
Setting [4] is: Test System: AMES SALMONELLA TYPHIMURIUM, Strain/Indicator: TA100, Metabolic Activation: NONE, Method: PREINCUBATION
[5] abbreviates: Test System: AMES SALMONELLA TYPHIMURIUM, Strain/Indicator: TA100, Metabolic Activation: NONE, Method: STANDARD PLATE.
[6] abbreviates: Test System: AMES SALMONELLA TYPHIMURIUM, Strain/Indicator: TA100, Metabolic Activation: RAT, LIVER, S-9, AROCLOR 1254, Method: STANDARD PLATE.
Where [7] appears, read: Test System: AMES SALMONELLA TYPHIMURIUM, Strain/Indicator: TA1535, Metabolic Activation: NONE, Method: STANDARD PLATE.
The mark [8] stands for this setting: Test System: AMES SALMONELLA TYPHIMURIUM, Strain/Indicator: TA1535, Metabolic Activation: RAT, LIVER, S-9, AROCLOR 1254, Method: STANDARD PLATE.
Where [9] appears, read: Test System: AMES SALMONELLA TYPHIMURIUM, Strain/Indicator: TA1537, Metabolic Activation: NONE, Method: STANDARD PLATE.
Setting [10] is: Test System: AMES SALMONELLA TYPHIMURIUM, Strain/Indicator: TA1537, Metabolic Activation: RAT, LIVER, S-9, AROCLOR 1254, Method: STANDARD PLATE.
Where [11] appears, read: Test System: AMES SALMONELLA TYPHIMURIUM, Strain/Indicator: TA1538, Metabolic Activation: NONE, Method: STANDARD PLATE.
Setting [12] is: Test System: AMES SALMONELLA TYPHIMURIUM, Strain/Indicator: TA1538, Metabolic Activation: RAT, LIVER, S-9, AROCLOR 1254, Method: STANDARD PLATE.
The mark [13] stands for this setting: Test System: MOUSE LYMPHOMA, Strain/Indicator: L5178Y (TK+/TK-), Metabolic Activation: NONE, Method: SUSPENSION/PLATE.

As to `[Cl][Fe]([Cl])[Cl]`, the mutagenic call (Test System: AMES SALMONELLA TYPHIMURIUM, Strain/Indicator: TA98, Metabolic Activation: HAMSTER, LIVER, S-9, AROCLOR 1254, Method: STANDARD PLATE) is “inactive; negative”; the mutagenic call under setting [1] was “inactive; negative”; the mutagenic call under setting [2] was “inactive; negative”; the mutagenic call under setting [3] was “inactive; negative”; the mutagenic call (Test System: AMES SALMONELLA TYPHIMURIUM, Strain/Indicator: TA98, Metabolic Activation: RAT, LIVER, S-9, KC 500, Method: PREINCUBATION) was “inactive; negative”; the mutagenic call (Test System: AMES SALMONELLA TYPHIMURIUM, Strain/Indicator: TA100, Metabolic Activation: HAMSTER, LIVER, S-9, AROCLOR 1254, Method: STANDARD PLATE) was “inactive; negative”. The mutagenic call runs as follows: under setting [4], “inactive; negative”; under setting [5], “inactive; negative”; under setting [6], “inactive; negative”; (Test System: AMES SALMONELLA TYPHIMURIUM, Strain/Indicator: TA100, Metabolic Activation: RAT, LIVER, S-9, KC 500, Method: PREINCUBATION) “inactive; negative”; (Test System: AMES SALMONELLA TYPHIMURIUM, Strain/Indicator: TA1535, Metabolic Activation: HAMSTER, LIVER, S-9, AROCLOR 1254, Method: STANDARD PLATE) “inactive; negative”; (Test System: AMES SALMONELLA TYPHIMURIUM, Strain/Indicator: TA1535, Metabolic Activation: NONE, Method: PREINCUBATION) “inactive; negative”. Further, the mutagenic call is “inactive; negative” under setting [7]; “inactive; negative” under setting [8]; “inactive; negative” (Test System: AMES SALMONELLA TYPHIMURIUM, Strain/Indicator: TA1535, Metabolic Activation: RAT, LIVER, S-9, KC 500, Method: PREINCUBATION); “inactive; negative” (Test System: AMES SALMONELLA TYPHIMURIUM, Strain/Indicator: TA1537, Metabolic Activation: HAMSTER, LIVER, S-9, AROCLOR 1254, Method: STANDARD PLATE); “inactive; negative” (Test System: AMES SALMONELLA TYPHIMURIUM, Strain/Indicator: TA1537, Metabolic Activation: NONE, Method: PREINCUBATION); “inactive; negative” under setting [9]. In addition, the mutagenic call is “inactive; negative” under setting [10]; “inactive; negative” (Test System: AMES SALMONELLA TYPHIMURIUM, Strain/Indicator: TA1537, Metabolic Activation: RAT, LIVER, S-9, KC 500, Method: PREINCUBATION); “inactive; negative” (Test System: AMES SALMONELLA TYPHIMURIUM, Strain/Indicator: TA1538, Metabolic Activation: HAMSTER, LIVER, S-9, AROCLOR 1254, Method: STANDARD PLATE); “inactive; negative” (Test System: AMES SALMONELLA TYPHIMURIUM, Strain/Indicator: TA1538, Metabolic Activation: NONE, Method: PREINCUBATION); “inactive; negative” under setting [11]; “inactive; negative” under setting [12]. Moreover, the mutagenic call was “inactive; negative” (Test System: AMES SALMONELLA TYPHIMURIUM, Strain/Indicator: TA1538, Metabolic Activation: RAT, LIVER, S-9, KC 500, Method: PREINCUBATION); “inactive; negative” (Test System: E. COLI, Strain/Indicator: WP2 UVRA, Metabolic Activation: NONE, Method: PREINCUBATION); “inactive; negative” (Test System: E. COLI, Strain/Indicator: WP2 UVRA, Metabolic Activation: RAT, LIVER, S-9, KC 500, Method: PREINCUBATION); “inactive; negative” under setting [13]; “active; positive” (Test System: MOUSE LYMPHOMA, Strain/Indicator: L5178Y (TK+/TK-), Metabolic Activation: RAT, LIVER, S-9, AROCLOR 1254, Method: SUSPENSION/PLATE).
`COc1ccc(CO)cc1`: the mutagenic call under setting [5] is “inactive; negative”.
For `O=C(c1ccccc1)C1OC1c1ccc(Oc2ccccc2)cc1` (configuration not stated), the mutagenic call is, setting by setting: under setting [2], “inactive; negative”; under setting [3], “inactive; negative”; under setting [5], “inactive; negative”; under setting [6], “inactive; negative”.
Turning to `CC(=O)Nc1ccc2c3c(cccc13)-c1cc(O)ccc1-2`, the mutagenic call is “active; positive” under setting [2] and “active; positive” under setting [3].
For `CC(=O)Nc1ccc(S(N)(=O)=O)cc1`, the mutagenic call is “inactive; negative” under setting [1]; “inactive; negative” (Test System: AMES SALMONELLA TYPHIMURIUM, Strain/Indicator: TA98, Metabolic Activation: RAT, LIVER, S-9, AROCLOR 1254, Method: PREINCUBATION); “inactive; negative” under setting [4]; “inactive; negative” (Test System: AMES SALMONELLA TYPHIMURIUM, Strain/Indicator: TA100, Metabolic Activation: RAT, LIVER, S-9, AROCLOR 1254, Method: PREINCUBATION).
As to `O=c1[nH]c(=O)c2[nH]cnc2[nH]1`, the mutagenic call under setting [13] was “inactive; negative”.
Turning to `COC(=O)c1cc(Cc2ccc(N)c(C(=O)OC)c2)ccc1N`, the mutagenic call runs as follows: under setting [1], “inactive; negative”; (Test System: AMES SALMONELLA TYPHIMURIUM, Strain/Indicator: TA98, Metabolic Activation: RAT, LIVER, S-9, PCB, Method: PREINCUBATION) “active; positive”; under setting [4], “inactive; negative”; (Test System: AMES SALMONELLA TYPHIMURIUM, Strain/Indicator: TA100, Metabolic Activation: RAT, LIVER, S-9, PCB, Method: PREINCUBATION) “active; positive”.
Regarding `Cc1cc(N)c(C)c2c1[nH]c1ccccc12`, the mutagenic call is “inactive; negative” under setting [2]; “active; positive” (Test System: AMES SALMONELLA TYPHIMURIUM, Strain/Indicator: TA98, Metabolic Activation: RAT LIVER S-9, AROCLOR 1254, Method: STANDARD PLATE); “inactive; negative” under setting [5]; “inactive; negative” (Test System: AMES SALMONELLA TYPHIMURIUM, Strain/Indicator: TA100, Metabolic Activation: RAT LIVER S-9, AROCLOR 1254, Method: STANDARD PLATE).
On to `Nc1cc([N+](=O)[O-])c(N)cc1F`, for which the mutagenic call by setting is: under setting [2], “active; positive”; under setting [3], “active; positive”; under setting [5], “inactive; negative”; under setting [6], “active; positive”; under setting [7], “inactive; negative”; under setting [8], “inactive; negative”. Moreover, the mutagenic call was “active; positive” under setting [9], “active; positive” under setting [10], “active; positive” under setting [11] and “active; positive” under setting [12].
On to `O=S(=O)(O)c1cc(S(=O)(=O)O)c2c(N=Nc3ccc(S(=O)(=O)O)c4ccccc34)c(O)ccc2c1`, for which the mutagenic call by setting is: (End Point: IN VIVO MICRONUCLEUS, Test System: BONE MARROW POLYCHROMATIC ERYTHROCYTES, Species: MOUSE, Strain/Sex: DDY/MALE, Route: IP) “inactive; negative”; under setting [1], “inactive; negative”; (Test System: AMES SALMONELLA TYPHIMURIUM, Strain/Indicator: TA98, Metabolic Activation: S-9, Method: PREINCUBATION) “inactive; negative”; under setting [4], “inactive; negative”; (Test System: AMES SALMONELLA TYPHIMURIUM, Strain/Indicator: TA100, Metabolic Activation: S-9, Method: PREINCUBATION) “inactive; negative”; (Test System: Mouse lymphoma, Strain/Indicator: L5178Y (tk+/tk-), Metabolic Activation: None, Method: Suspension/plate) “inactive; negative”. Moreover, the mutagenic call runs as follows: (Test System: Mouse lymphoma, Strain/Indicator: L5178Y (tk+/tk-), Metabolic Activation: Rat, Liver, S-9, Aroclor 1254, Method: Suspension/plate) “inactive; inconclusive (previous evaluation negative)”; (Test System: UDS RODENT HEPATOCYTES, Strain/Indicator: THY INCORP, Metabolic Activation: NONE, Method: AUTORADIOGRAPHY) “inactive; negative”.
